Reference: paper PMC5572761 (Journal of medicinal chemistry, 2017)
Where a SMILES comes first, the peptide text is derived from it. Bridges are numbered along the chain shown (N, C = ends).

Tests used:
rat α6/α3β4 nAChR = rat α6/α3β4 nAChR (Rattus norvegicus, UniProt P04757+P12392+P43143); assay type: cell-based
rat α3β4 nAChR = rat α3β4 nAChR (Rattus norvegicus, UniProt P04757+P12392); assay type: cell-based
Sequence of rat α3β4 nAChR (P04757 26-499 limits assumed): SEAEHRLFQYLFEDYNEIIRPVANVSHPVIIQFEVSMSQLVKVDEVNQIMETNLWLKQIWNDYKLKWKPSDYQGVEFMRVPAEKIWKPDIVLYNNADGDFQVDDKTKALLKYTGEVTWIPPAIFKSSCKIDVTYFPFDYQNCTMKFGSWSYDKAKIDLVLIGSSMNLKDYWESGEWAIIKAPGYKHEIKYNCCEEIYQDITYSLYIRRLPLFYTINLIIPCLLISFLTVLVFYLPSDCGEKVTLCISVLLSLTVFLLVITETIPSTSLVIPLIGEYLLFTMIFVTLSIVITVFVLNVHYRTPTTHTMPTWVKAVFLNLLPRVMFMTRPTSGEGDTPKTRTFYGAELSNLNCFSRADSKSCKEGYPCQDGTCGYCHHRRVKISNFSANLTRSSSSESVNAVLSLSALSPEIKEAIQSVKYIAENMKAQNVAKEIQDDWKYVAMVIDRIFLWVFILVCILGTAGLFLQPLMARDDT
Sequence of rat α3β4 nAChR (P12392 21-495 limits assumed): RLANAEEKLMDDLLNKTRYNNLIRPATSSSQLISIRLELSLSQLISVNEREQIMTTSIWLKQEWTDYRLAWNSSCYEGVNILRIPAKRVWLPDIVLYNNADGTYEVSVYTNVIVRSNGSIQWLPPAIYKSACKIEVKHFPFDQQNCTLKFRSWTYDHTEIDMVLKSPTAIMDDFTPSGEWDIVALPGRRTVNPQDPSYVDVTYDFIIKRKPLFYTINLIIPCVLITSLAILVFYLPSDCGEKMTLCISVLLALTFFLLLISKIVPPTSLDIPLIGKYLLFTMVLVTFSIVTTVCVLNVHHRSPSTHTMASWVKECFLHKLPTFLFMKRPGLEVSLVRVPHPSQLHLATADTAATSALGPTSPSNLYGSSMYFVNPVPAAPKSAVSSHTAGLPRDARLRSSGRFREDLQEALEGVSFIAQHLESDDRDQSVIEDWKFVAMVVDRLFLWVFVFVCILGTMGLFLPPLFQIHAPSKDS

Sequence of rat α6/α3β4 nAChR (P04757 whole entry, looked up): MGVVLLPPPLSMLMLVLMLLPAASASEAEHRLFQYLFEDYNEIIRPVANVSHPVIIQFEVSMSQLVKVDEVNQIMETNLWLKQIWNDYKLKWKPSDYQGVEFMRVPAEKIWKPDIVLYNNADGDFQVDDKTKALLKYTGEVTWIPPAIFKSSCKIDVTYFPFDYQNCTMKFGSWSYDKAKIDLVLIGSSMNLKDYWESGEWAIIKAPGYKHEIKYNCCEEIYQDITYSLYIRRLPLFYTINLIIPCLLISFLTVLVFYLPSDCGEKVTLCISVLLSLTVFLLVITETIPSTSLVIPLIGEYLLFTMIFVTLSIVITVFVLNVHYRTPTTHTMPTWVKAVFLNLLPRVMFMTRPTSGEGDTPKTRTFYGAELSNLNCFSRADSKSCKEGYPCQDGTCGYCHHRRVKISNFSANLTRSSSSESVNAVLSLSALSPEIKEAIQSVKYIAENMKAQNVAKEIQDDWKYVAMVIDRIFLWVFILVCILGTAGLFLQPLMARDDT
Sequence of rat α6/α3β4 nAChR (P12392 whole entry, looked up): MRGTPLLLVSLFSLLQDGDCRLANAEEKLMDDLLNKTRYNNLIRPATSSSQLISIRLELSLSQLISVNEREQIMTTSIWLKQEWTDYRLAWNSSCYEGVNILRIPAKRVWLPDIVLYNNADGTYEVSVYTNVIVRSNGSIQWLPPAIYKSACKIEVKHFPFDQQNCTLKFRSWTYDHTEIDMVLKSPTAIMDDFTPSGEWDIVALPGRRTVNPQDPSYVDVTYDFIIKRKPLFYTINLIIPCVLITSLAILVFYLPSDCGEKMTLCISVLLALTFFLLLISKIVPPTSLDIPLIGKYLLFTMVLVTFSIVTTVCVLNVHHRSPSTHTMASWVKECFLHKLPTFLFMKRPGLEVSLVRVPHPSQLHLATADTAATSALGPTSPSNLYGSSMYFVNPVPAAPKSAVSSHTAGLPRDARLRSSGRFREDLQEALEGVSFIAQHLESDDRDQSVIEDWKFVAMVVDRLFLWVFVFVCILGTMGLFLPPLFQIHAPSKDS
Sequence of rat α6/α3β4 nAChR (P43143 whole entry, looked up): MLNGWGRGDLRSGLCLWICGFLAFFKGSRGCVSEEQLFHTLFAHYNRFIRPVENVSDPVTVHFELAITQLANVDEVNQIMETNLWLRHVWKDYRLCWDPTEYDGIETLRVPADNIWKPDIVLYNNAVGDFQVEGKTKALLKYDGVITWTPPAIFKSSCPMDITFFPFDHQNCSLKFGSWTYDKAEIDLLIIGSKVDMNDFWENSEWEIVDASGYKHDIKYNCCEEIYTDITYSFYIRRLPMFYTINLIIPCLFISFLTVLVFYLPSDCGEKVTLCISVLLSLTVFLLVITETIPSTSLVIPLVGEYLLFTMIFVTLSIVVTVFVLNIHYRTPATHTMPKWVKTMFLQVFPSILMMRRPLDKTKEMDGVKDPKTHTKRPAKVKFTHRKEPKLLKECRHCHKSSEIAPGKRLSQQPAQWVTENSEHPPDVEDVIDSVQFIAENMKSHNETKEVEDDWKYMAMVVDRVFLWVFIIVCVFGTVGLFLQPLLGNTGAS

| Structure (SMILES) | Hill slope n^H α6/α3β4 (rat α6/α3β4 nAChR) | α6/α3β4 IC50 ratio relative to 1 (rat α6/α3β4 nAChR) | Hill slope n^H α3β4 (rat α3β4 nAChR) | α3β4 IC50 ratio relative to 1 (rat α3β4 nAChR) |
| --- | --- | --- | --- | --- |
| CSCC[C@@H]1NC(=O)[C@H](C)NC(=O)[C@H](CO)NC(=O)[C@@H]2CSSC[C@H](NC(=O)CN)C(=O)N[C@@H](CSSC[C@@H](C(N)=O)NC(=O)[C@H](C)NC(=O)[C@@H]3CCCN3C(=O)[C@H](CO)NC1=O)C(=O)N[C@@H](CO)C(=O)N[C@@H](Cc1c[nH]cn1)C(=O)N1CCC[C@H]1C(=O)N[C@@H](C(C)C)C(=O)N2 [Peptide 11] (H-GCCSHPVCSAMSPAC-NH2; disulfide 2-8, 3-15) | 1.04 (0.77–1.32) | 1.3 | 1.05 (0.39–1.70) | 4.4 |
| CSCC[C@@H]1NC(=O)[C@H](C)NC(=O)[C@H](CO)NC(=O)[C@@H]2CSSC[C@H](NC(=O)CN)C(=O)N[C@@H](CSSC[C@@H](C(N)=O)NC(=O)[C@H](CC(=O)O)NC(=O)[C@@H]3CCCN3C(=O)[C@H](CO)NC1=O)C(=O)N[C@@H](CO)C(=O)N[C@@H](Cc1c[nH]cn1)C(=O)N1CCC[C@H]1C(=O)N[C@@H](C(C)C)C(=O)N2 [Peptide 14] (H-GCCSHPVCSAMSPDC-NH2; disulfide 2-8, 3-15) | 0.84 (0.69–0.98) | 1.2 | 1.33 (0.387–2.26) | 2.7 |
